This note sets out measurements from US20220192179A1, “BIOMIMETIC ICE-INHIBITING MATERIAL AND CRYOPRESERVATION SOLUTION COMPRISING SAME” (priority 2019, published 2022).

Peptide text beside a SMILES is read from it.

Assay [1] in a line: Ice topography (DIS) observation and thermal hysteresis (TH) measurement, nanoliter osmometer. It counts as physicochemical. As to conditions: deionized aqueous solution; for thermal hysteresis (TH): nanoliter osmometer; for modification effect on the topography of ice crystals (DIS observation): supercooling degree of −0.1 °C. Here is the method:
DIS observation and TH measurement were performed by using a nanoliter osmometer. A capillary was first melt with the outer flame of a alcohol burner, and simultaneously stretched to produce a capillary with a very fine pore size, and the capillary was then linked to a microsyringe; an immersion oil with higher viscosity was injected into a disk with micron-sized holes, and an aqueous solution in which the material was dissolved was injected into the microholes by using a microsyringe; the droplet was quickly frozen by regulating the temperature, and then slowly heated to give a single crystal ice, the single crystal ice was slowly cooled at the precision of 0.01° C., and the DIS observation and TH test were performed by using a microscope provided with a high-speed camera.

Assay [2] can be described thus: Ice recrystallization inhibition (IRI) activity, splat-freezing method. It counts as physicochemical. As to conditions: for MLGS (%) relative to that of DPBS, compared with the unbound components: 20 μL DPBS solution, same concentration.
Method: The IRI activity was assessed using “splat-freezing method”, wherein a sample was dissolved and dispersed into a DPBS solution, and 10-30 μL of the resulting solution was added dropwise onto the surface of a clean silicon disk pre-cooled at -60° C. at a height of no less than 1.0 m; the solution was slowly heated to -6° C. at a speed of 10° C. ·min^−1 by using a hot-cold stage, and was annealed for 30 min at this temperature; the sizes of ice crystals were observed and recorded by using a polarizing microscope and a high-speed camera. The hot-cold stage was sealed to ensure that the internal humidity was about 50%.
The IRI activity was assessed using “splat-freezing method”, wherein a sample was dissolved and dispersed into a DPBS solution, and 10-30 μL of the resultant solution was added dropwise onto the surface of a clean silicon disk precooled at −60° C. at a height of no less than 1.0 m; the solution was slowly heated to −6° C. at a speed of 10° C./min by using a hot-cold stage, and was annealed for 30 min at this temperature; the sizes of ice crystals were observed and recorded by using a polarizing microscope and a high-speed camera. The hot-cold stage was sealed to ensure that the internal humidity was about 50%.
The ice recrystallization inhibition (IRI) activity was assessed using “splat-freezing method”, wherein the two PVAs were separately dissolved and dispersed into DPBS solutions, and 10-30 μL of the resulting solution was added dropwise onto the surface of a clean silicon disk pre-cooled at −60° C. at a height of no less than 1.0 m; the solution was slowly heated to −6° C. at a speed of 10° C.·min^−1 by using a hot-cold stage, and was annealed for 30 min at this temperature; the sizes of ice crystals were observed and recorded by using a polarizing microscope and a high-speed camera. The hot-cold stage was sealed to ensure that the internal humidity was about 50%.

For `CC(O)C(NC(=O)[C@@H](O)[C@H](O)[C@@H](O)[C@@H](O)CO)C(=O)O` (stereo partly drawn) [GDL-L-Thr], in assay [1], the “thermal hysteresis (TH)” value was “No TH was determined” and the “modification effect on the topography of ice crystals (DIS observation)” value (shortened to “modification effect on the topography”) is “weak modification effect on the topography of ice crystals”. In addition, the “MLGS (%) relative to that of DPBS, compared with the unbound components” value in assay [2] is “obviously smaller than those of the DPBS solutions of GDL and amino acids at the same concentration”. In assay [2] (result in words), the “ability to inhibit the growth of ice crystals” value was “good capability of inhibiting the growth of ice crystals”.

Turning to `C[C@@H](O)[C@H](N)C(=O)N[C@@H](CCCNC(=N)N)C(=O)O` [TR, L-Thr-L-Arg] (H-Thr-Arg-OH), in assay [1], the “thermal hysteresis (TH)” value is listed as “No TH was determined” and the “modification effect on the topography” value is given as “weak modification effect on the topography of ice crystals”. In addition, in assay [2], the “MLGS (%) relative to that of DPBS, compared with the unbound components” value is “obviously smaller than that of the DPBS solutions of arginine and threonine at the same concentration”.

As for `NC(=O)CN(CCC(=O)O)C(=O)CN(CCC(=O)O)C(=O)CN(CCC(=O)O)C(=O)CN(CCC(=O)O)C(=O)CN(CCC(=O)O)C(=O)CNCCC(=O)O` [peptoid where R was —CH2CH2COOH], in assay [1], the “modification effect on the topography” value is given as “no modification effect on the topography of ice crystals”.

With `CCNCC(=O)N(CC)CC(=O)N(CC)CC(=O)N(CC)CC(=O)N(CC)CC(=O)N(CC)CC(N)=O` [peptoid where R was —CH2CH3], in assay [1], the “thermal hysteresis (TH)” value is listed as “no TH” and the “modification effect on the topography” value is on record as “rather obvious modification effects on the topography of ice crystals”. Also, in assay [1] (listed as compound of formula (9) where R is —CH2CH3), the “modification effect on the topography” value is “excellent modification effect on the topography of ice crystals”.

For the compound `CNCC(=O)N(C)CC(=O)N(C)CC(=O)N(C)CC(=O)N(C)CC(=O)N(C)CC(N)=O` [peptoid where R was —CH3], in assay [1], the “thermal hysteresis (TH)” value is on record as “no TH” and the “modification effect on the topography” value is “rather obvious modification effects on the topography of ice crystals”. Further, the “modification effect on the topography” value in assay [1] (listed as compound of formula (9) where R is —CH3) was “excellent modification effect on the topography of ice crystals”.

GDL-L-Ser: the “MLGS (%) relative to that of DPBS, compared with the unbound components” value in assay [2] is “obviously smaller than those of the DPBS solutions of GDL and amino acids at the same concentration”.

For GDL-L-Val, the “MLGS (%) relative to that of DPBS, compared with the unbound components” value in assay [2] is “obviously smaller than those of the DPBS solutions of GDL and amino acids at the same concentration”.
